From patent US5677152A, “Nucleic acid amplification using a reersibly inactivated thermostable enzyme” (Roche Molecular Systems, Inc., priority 1996, dated 1997)

How the values were obtained:
[1] = test system: HIV-1 genomic sequence; assay: Effect of pre-reaction incubation time on PCR product (HIV-1 model system); format: biochemical; conditions: for amplified product without a pre-reaction incubation (FIG. 4): 0 minutes pre-reaction incubation, compared with extended incubation
Description: Amplifications were carried out using the citraconylated and cis-aconitylated Taq DNA polymerases prepared as described above. For each set of amplification conditions, Taq DNA polymerases modified using a 80-fold and a 160-fold molar excess of citaconic anhydride, and a 90-fold and a 180-fold molar excess of cis-aconitic anhydride were used. Amplifications were carried out using the HIV-1 model system described in Example 6, above, except that the initial pre-reaction incubation was varied. For each enzyme preparation, amplifications were carried out using pre-reaction incubations of 12, 6, 3, and 0 minutes.
As noted above, the pre-reaction incubation step also serves as the initial denaturation step. Each cycle of a PCR begins with a denaturation step. Immediately following the initial pre-reaction incubation carried out at 95° C. for 12, 6, 3, or 0 minutes, each reaction mixture is incubated at 94° C. for 1 minute during the denaturation step of the first cycle. Thus, even when no pre-reaction incubation was used, enzyme activity is recovered during the denaturation step of the initial cycles.
The amplification products were analyzed by agarose gel electrophoresis. The band corresponding to the amplified target sequence is indicated. Bands appearing on the gel other than the band which corresponds to the amplified target sequence correspond to the products generated by the non-specific amplification of non-target sequences.

[2] = test system: HIV-1 genomic sequence; assay: Effect of amplification cycle number on PCR product (HIV-1 model system); format: biochemical; conditions: no pre-reaction incubation; 39, 43, 48, 60 cycles
Description: Amplifications were carried out using the Taq DNA polymerases modified using a 80-fold and a 160-fold molar excess of citraconic anhydride, and a 90-fold and a 180-fold molar excess of cis-aconitic anhydride. The Amplifications were carried out essentially as described above using the HIV-1 model system described in Example 6, except that the initial pre-reaction incubation and cycle numbers were varied. For each enzyme preparation, amplifications were carried out using the following conditions: […]
The amplification products were analyzed by agarose gel electrophoresis.

[3] = test system: cloned HTLV-I genomic sequence; assay: PCR amplification of HTLV-I with citraconylated Taq DNA polymerase, agarose gel analysis; format: biochemical; conditions: 30 copies HTLV-I template; pre-reaction incubation 90° C. for 10 minutes; enzyme dilutions 1/10-1/80
Description: Amplifications were carried out using 1/20, 1/40, and 1/80 dilutions of the 240× modified Taq DNA polymerase described in Example 2. Dilutions were made in a buffer consisting of 20 mM Tris-HCl, pH 8.0 (at room temperature), 100 mM KCl, 0.1 mM EDTA (ethylenediaminetetraacetic acid), 1 mM DTT (dithiothreitol), 50% glycerol, 0.5% Tween 20, 0.5% Nonidet P40 (AmpliTaq®storage buffer, Perkin Elmer, Norwalk, Conn.). For comparison, amplifications also were carried out using 1/10, 1/20, 1/40, and 1/80 dilutions of unmodified Taq DNA polymerase.
A cloned HTLV-I genomic sequence was amplified using primers SK432 and SK111. The primer sequences are provided in U.S. Pat. No. 5,418,149, incorporated herein by reference. The PCR was carried out in a 100 μl reaction volume under the following reaction conditions.
30 copies of HTLV-I DNA template
(§1) 200 μM dATP, dCTP, and dGTP
0.5 μl of citraconylated Taq DNA polymerase solution
(§2) 1 unit of UNG (Perkin Elmer, Norwalk, Conn.) […]
The amplified products were analyzed by 4% agarose gel electrophoresis using a 1× TBE (0.089M Tris, 0.089M boric acid, 0.0025M disodium EDTA) running buffer. Electrophoresis was carried out at 100 volts for approximately 2 hours. Ethidium bromide (0.5 μg/ml) was added following electrophoresis to stain any DNA present. The gel was destained in 1× TBE and the ethidium bromide-stained bands of DNA were visualized using UV irradiation. […]

[4] = test system: HIV-1 genomic sequence; assay: PCR amplification of HIV-1 with citraconylated DNA polymerases, agarose gel analysis; format: biochemical; conditions: 100 copies HIV-1 template; pre-reaction incubation 95° C. for 12 minutes; enzyme dilutions 1/10-1/80
Description: Amplifications were carried out using dilutions of modified DNA polymerases. Dilutions were made in a buffer consisting of 20 mM Tris-HCl, pH 8.0 (at room temperature), 100 mM KCl,0.1 mM EDTA (ethylenediaminetetraacetic acid), 1 mM DTT (dithiothreitol), 50% glycerol, 0.5% Tween 20, 0.5% Nonidet P40 (AmpliTaq® storage buffer, Perkin Elmer, Norwalk, Conn.).
An HIV-1 genomic sequence was amplified using primers SK145 and SK431 (Perkin Elmer, Norwalk, Conn.). The PCR was carried out in a 100 μl reaction volume under the following reaction conditions.
100 copies of HIV-1 DNA template
as §1
0.5 μl of DNA polymerase solution
as §2
The pre-reaction incubation step also serves as the initial denaturation step. An initial denaturation step is routinely used in a typical amplification reaction to insure complete denaturation of the double-stranded target. Each cycle of the PCR begins with a denaturation step of 94° C. for 1 minute. Thus, immediately following the initial pre-reaction incubation carried out at 95° C. for 12 minutes, the reaction mixture is incubated at 94° C. for 1 minute during the denaturation step of the first cycle.
The amplified products were analyzed by agarose gel electrophoresis (100 ml of 3% NuSieve and 0.5% SeaChem) using a 1× TBE (0.089M Tris, 0.089M boric acid, 0.0025M disodium EDTA) running buffer. Electrophoresis was carried out at 100 volts for approximately 1 hour. Ethidium bromide (0.5 μg/ml) was added following electrophoresis to stain any DNA present. The gel was destained in TBE and the ethidium bromide-stained bands of DNA were visualized using UV irradiation.
Dilutions (1/10, 1/20, 1/40, and 1/80) of the citraconylated DNA polymerases described in Example 5 and the 240× citriconylated Taq DNA polymerase described in Example 2 were used in amplifications of HIV-1 nucleic acid and the amplified products were anaylzed by agarose gel electrophoresis. For comparison, amplifications were carried out using dilutions of unmodified Taq DNA polymerase. […]

[5] = Storage stability of inactivated enzyme; format: physicochemical; conditions: stored at 25° C.

cis-aconitylated DNA polymerase: Taq DNA polymerase modified using cis-aconitic anhydride (90× and 180× preparations)
amplified product without a pre-reaction incubation (FIG. 4) [1]: nearly as much product as the amplifications using an extended pre-reaction incubations
amplified product band over pre-reaction incubation times (FIG. 4) ([1]; pre-reaction incubations of 12, 6, 3 and 0 minutes at 95° C.): all pre-reaction incubation times resulted in a strong band corresponding to amplified product
effect of increasing the amplification cycle number on amplified product (FIG. 5) [2]: The effect was smallest

citraconylated Taq DNA polymerase: Taq DNA polymerase modified using citraconic anhydride; 240× in Examples 4 and 6, 80× and 160× in Examples 9 and 10
amplified product without a pre-reaction incubation (FIG. 4) [1]: significantly less amplified product
pre-reaction incubation required to obtain the maximum amount of amplified product ([1]; 95° C. pre-reaction incubation): at least 3 minutes
amplified target band versus non-specific amplification products (FIG. 2) [3]: significant increase in the intensity of the band corresponding to the amplified target sequence, and a significant decrease in the intensity of the bands corresponding to non-specific amplification products
amplified target band versus non-specific amplification products (FIG. 3) [4]: intense band corresponding to the amplified target sequence for all but the 1/80 dilution
storage stability: time enzyme remains inactivated [5]: remain inactivated for at least four weeks

unmodified Taq DNA polymerase: Taq DNA polymerase (AmpliTaq®, Perkin Elmer), unmodified comparison enzyme [reference compound]
amplified target band versus non-specific amplification products (FIG. 2) [3]: predominantly non-specific amplification product
amplified target band versus non-specific amplification products (FIG. 3) [4]: predominantly non-specific amplification product

B1: citraconylated rTth: citraconylated thermostable DNA polymerase from Thermus thermophilus (protein, UniProt P52028 1-834, looked up)
DNA polymerase I, thermostable: MEAMLPLFEPKGRVLLVDGHHLAYRTFFALKGLTTSRGEPVQAVYGFAKSLLKALKEDGYKAVFVVFDAKAPSFRHEAYEAYKAGRAPTPEDFPRQLALIKELVDLLGFTRLEVPGYEADDVLATLAKKAEKEGYEVRILTADRDLYQLVSDRVAVLHPEGHLITPEWLWEKYGLRPEQWVDFRALVGDPSDNLPGVKGIGEKTALKLLKEWGSLENLLKNLDRVKPENVREKIKAHLEDLRLSLELSRVRTDLPLEVDLAQGREPDREGLRAFLERLEFGSLLHEFGLLEAPAPLEEAPWPPPEGAFVGFVLSRPEPMWAELKALAACRDGRVHRAADPLAGLKDLKEVRGLLAKDLAVLASREGLDLVPGDDPMLLAYLLDPSNTTPEGVARRYGGEWTEDAAHRALLSERLHRNLLKRLEGEEKLLWLYHEVEKPLSRVLAHMEATGVRLDVAYLQALSLELAEEIRRLEEEVFRLAGHPFNLNSRDQLERVLFDELRLPALGKTQKTGKRSTSAAVLEALREAHPIVEKILQHRELTKLKNTYVDPLPSLVHPRTGRLHTRFNQTATATGRLSSSDPNLQNIPVRTPLGQRIRRAFVAEAGWALVALDYSQIELRVLAHLSGDENLIRVFQEGKDIHTQTASWMFGVPPEAVDPLMRRAAKTVNFGVLYGMSAHRLSQELAIPYEEAVAFIERYFQSFPKVRAWIEKTLEEGRKRGYVETLFGRRRYVPDLNARVKSVREAAERMAFNMPVQGTAADLMKLAMVKLFPRLREMGARMLLQVHDELLLEAPQARAEEVAALAKEAMEKAYPLAVPLEVEVGMGEDWLSAKG
modifications: citraconylated
amplified target band versus non-specific amplification products (FIG. 3) [4]: greater production of specific amplification product than seen in amplifications using unmodified Taq DNA polymerase
